Laboratory results from US11312950B2, “3D synthetic tissue hydrogels” (University of Massachusetts, priority 2017, dated 2022).

Experiments:
[1] = tested on: hMSCs; assay: Competitive binding assay: adhesion of hMSCs pre-treated with soluble peptides to a surface with the bone marrow peptide cocktail; assay type: cell-based, human; details: 30 minutes pretreatment; glass surface with bone marrow integrin-binding peptide cocktail; three donor hMSCs and hTERT MSCs; 2 hours
Protocol: Cells were seeded at 4000 cells per cm^2 in their normal growth medium after 30 minutes of pretreatment with individual peptides or the complete bone marrow cocktail. Bone marrow was dosed at a molar amount of […] of medium and the molar amount dosed for each peptide was as follows: GRGDSPCG (SEQ ID NO:8)at 600 pmol/mL, CGPHSRNGGGGGGRGDS (SEQ ID NO:14), and […] (SEQ ID NO:18) at 220 pmol/mL, CGP(GPP)5GFOGER(GPP)5 (SEQ ID NO:15), CGGSVVYGLR (SEQ ID NO:13), and GPRGGC (SEQ ID NO:2)at 160 pmol/mL, CSVTCG (SEQ ID NO:4) and […] (SEQ ID NO:5) at 100 pmol/mL, GCGDGEA (SEQ ID NO:1), CSRARKQAASIKVAVADR (SEQ ID NO:3), GCKQLREQ (SEQ ID NO:6), and CGGAEIDGIEL (SEQ ID NO:16) at 60 pmol/mL, and GCDPGYIGSR (SEQ ID NO:7) at 40 pmol/mL. Cells were imaged cells beginning 10 minutes after seeding in an environment controlled Zeiss Axio Observer Z1 microscope (Carl Zeiss) using an AxioCam MRm camera and an EC Plan-Neofluar 20× 0.4 NA air objective. Images were taken using Zen (Carl Zeiss) at five-minute intervals for 2 hours and cell areas were traced in ImageJ (National Institutes of Health).

[2] = tested on: MDA-MB-231 cells; assay: MDA-MB-231 spheroid growth in hydrogels with one MMP degradable crosslinker; assay type: cell-based, human; details: spheroid size ratio
Protocol: Cytodex1 microcarrier beads (Sigma) were swollen in sterile IX PBS (1 g beads/50 mL PBS) and autoclaved for 30 minute at 121° C. Flasks were coated with poly (2-hydroxyethy methacrylate) suspended in ethanol at 20 mg/mL and allowed to evaporate in a biosafety cabinet for 1 hour to make they non-adherent. hMSCs were seeded at 10-50 cells/bead in non-adherent flasks at a 0.1 mL of beads/mL of media. The flask was shaken every 1 hour for 4 hours to ensure coating unto beads. Cells were allowed to grow on beads for 72 hours before seeding into hydrogels. Breast cancer cells were suspended in 4° C., poly(N-isopropylacryamide)-poly(ethylene glycol) (pNIPAAM-PEG, Cosmo Bio) reconstituted in cell culture medium at a density of 167,000 cells/mL of MDA-MB-231s. Gelation occurred after 5 min at 37° C., and gels were swollen in cell culture medium and grown into spheroids for 14 days. pNIPAAm gels were dissolved in cold serum-free DMEM (1% pen/strep) and spheroids transferred to conical tubes placed in ice so that spheroids would settle to the bottom. The supernatant was removed and the spheroids were re-suspended in PEG-maleimide solution. A ratio of 9 3D hydrogels were made for every 150 μL of pNIPAAM-PEG. Hydrogels were prepared with 4-arm PEG-maleimide at a 20 wt % cross-linked at a 1:1 molar ratio with 50% 1.5 K linear PEG-dithiol and 50% of each individual MMP degradable peptide sequence (FIGS. 13A-13C). […]

[3] = tested on: hMSCs; assay: Outgrowth of hMSCs on beads in hydrogels made with a single MMP degradable crosslinker; assay type: cell-based, human; details: versus control, non-degradable crosslinker
Protocol: Cytodex1 microcarrier beads (Sigma) were swollen in sterile IX PBS (1 g beads/50 mL PBS) and autoclaved for 30 minute at 121° C. Flasks were coated with poly (2-hydroxyethy methacrylate) suspended in ethanol at 20 mg/mL and allowed to evaporate in a biosafety cabinet for 1 hour to make they non-adherent. hMSCs were seeded at 10-50 cells/bead in non-adherent flasks at a 0.1 mL of beads/mL of media. The flask was shaken every 1 hour for 4 hours to ensure coating unto beads. Cells were allowed to grow on beads for 72 hours before seeding into hydrogels. Breast cancer cells were suspended in 4° C., poly(N-isopropylacryamide)-poly(ethylene glycol) (pNIPAAM-PEG, Cosmo Bio) reconstituted in cell culture medium at a density of 167,000 cells/mL of MDA-MB-231s. Gelation occurred after 5 min at 37° C., and gels were swollen in cell culture medium and grown into spheroids for 14 days. pNIPAAm gels were dissolved in cold serum-free DMEM (1% pen/strep) and spheroids transferred to conical tubes placed in ice so that spheroids would settle to the bottom. The supernatant was removed and the spheroids were re-suspended in PEG-maleimide solution. A ratio of 9 3D hydrogels were made for every 150 μL of pNIPAAM-PEG. Hydrogels were prepared with 4-arm PEG-maleimide at a 20 wt % cross-linked at a 1:1 molar ratio with 50% 1.5 K linear PEG-dithiol and 50% of each individual MMP degradable peptide sequence (FIGS. 13A-13C). Gels were imaged at days 1 and 3 and all image analysis was performed in ImageJ (National Institutes of Health).

[4] = tested on: myofibroblasts; details: cited from earlier work
[5] = tested on: chick arotic cells; details: cited from earlier work

Substance | cell adhesion (cell area) after pre-treatment with soluble peptide [1] | degradation of crosslinked gel by MDA-MB-231 spheroids [2] | hMSC cell branching into hydrogel (maximum branch length per bead) [3] | ability of MMP peptide to degrade [4] | ability of MMP peptide to degrade [5]
CGP(GPP)5GFOGER(GPP)5 (CGPGPPGPPGPPGPPGPPGFGERGPPGPPGPPGPPGPP) [collagen I] | not significantly bound | – | – | – | –
CGGAEIDGIEL [tenascin C] | not significantly bound | – | – | – | –
GCRDGPLGLWARDRCG [MMP-13 crosslinker, di-functional MMP degradable crosslinker peptide designed for MMP 13 (Collagenase-3)] | – | degradation in the MMP-13 crosslinked gel was observed | No significant hMSC cell branching | – | –
GCRDRPFSMIMGDRCG [MMP-3 crosslinker, di-functional MMP degradable crosslinker peptide designed for MMP 3 (Stromelysin-1)] | – | again not with the MMP 2 and 3 peptides | No significant hMSC cell branching | ability for these MMP peptides to degrade has been shown | –
GCRDSGESPAYYTADRCG [MMP-2 crosslinker, di-functional MMP degradable crosslinker peptide designed for MMP 2 (Gelatinase A)] | – | again not with the MMP 2 and 3 peptides | No significant hMSC cell branching | – | ability for these MMP peptides to degrade has been shown
